Results as given in patent publication US10995101B2, “2-oxo-thiazole derivatives as A2A inhibitors and compounds for use in the treatment of cancers” (iTeos Therapeutics SA, priority 2017, dated 2021).

Key:
in vitro = conditions: human, Caco-2, pH 7.4
A2A receptor = A2A receptor (Homo sapiens, UniProt P29274); assay: Inhibition of cAMP production in HEK cells; assay type: cell-based; conditions: HEK-293 cells with A2A receptor
[1] = IC50 (nM) (3 nM NECA as agonist, 0.1% BSA), 3 nM NECA as agonist, 0.1% BSA
[2] = IC50 (nM) (5 μM Adenosine as agonist, 2.0% HSA), 5 μM Adenosine as agonist, 2.0% HSA

A2A receptor, sequence (P29274 whole entry): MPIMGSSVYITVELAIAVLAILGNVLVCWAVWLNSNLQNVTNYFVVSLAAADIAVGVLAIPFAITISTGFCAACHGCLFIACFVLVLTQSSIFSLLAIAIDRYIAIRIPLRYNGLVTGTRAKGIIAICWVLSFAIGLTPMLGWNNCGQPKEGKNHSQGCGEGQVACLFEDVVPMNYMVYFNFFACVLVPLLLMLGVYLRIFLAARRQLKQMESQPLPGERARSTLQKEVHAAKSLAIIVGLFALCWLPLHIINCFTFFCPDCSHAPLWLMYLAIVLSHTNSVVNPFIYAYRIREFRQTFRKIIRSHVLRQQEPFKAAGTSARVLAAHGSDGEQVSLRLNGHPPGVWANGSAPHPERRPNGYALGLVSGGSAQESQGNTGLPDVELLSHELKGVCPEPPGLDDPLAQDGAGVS

Nc1nc2c(sc(=O)n2CCN2CCN(c3cc(C(=O)NCC4COCCN4)c(F)cc3F)CC2)c2nc(-c3ccco3)nn12 (centres unmarked) [Compound 98, 5-(4-(2-(5-amino-8-(furan-2-yl)-2-oxothiazolo[5,4-e][1,2,4]triazolo[1,5-c]pyrimidin-3(2H)-yl)ethyl)piperazin-1-yl)-2,4-difluoro-N-(morpholin-3-ylmethyl)benzamide]
efflux ratio at 120 min, 2 μM (in vitro): 53 | IC50 (A2A receptor; [1]): 0.1 nM | IC50 (A2A receptor; [2]): 7 nM

Nc1nc2c(sc(=O)n2CCN2CCN(c3ccc(OCC4COCCN4)cc3F)CC2)c2nc(-c3ccco3)nn12 (centres unmarked) [Compound 99, 5-amino-3-(2-(4-(2-fluoro-4-(morpholin-3-ylmethoxy)phenyl)piperazin-1-yl)ethyl)-8-(furan-2-yl)thiazolo[5,4-e][1,2,4]triazolo[1,5-c]pyrimidin-2(3H)-one]
efflux ratio at 120 min, 2 μM (in vitro): 13 | IC50 (A2A receptor; [1]): 0.5 nM | IC50 (A2A receptor; [2]): 64 nM

Nc1nc2c(sc(=O)n2CCN2CCN(c3ccc(OCC4CNCCO4)cc3F)CC2)c2nc(-c3ccco3)nn12 (centres unmarked) [Compound 100, 5-amino-3-(2-(4-(2-fluoro-4-(morpholin-2-ylmethoxy)phenyl)piperazin-1-yl)ethyl)-8-(furan-2-yl)thiazolo[5,4-e][1,2,4]triazolo[1,5-c]pyrimidin-2(3H)-one]
efflux ratio at 120 min, 2 μM (in vitro): 66 | IC50 (A2A receptor; [1]): 0.1 nM | IC50 (A2A receptor; [2]): 10 nM

Nc1nc2c(sc(=O)n2CCN2CCN(c3ccc(O[C@@H]4CNC[C@H]4F)cc3F)CC2)c2nc(-c3ccco3)nn12 [Compound 101, 5-amino-3-(2-(4-(2-fluoro-4-(((3R,4R)-4-fluoropyrrolidin-3-yl)oxy)phenyl)piperazin-1-yl)ethyl)-8-(furan-2-yl)thiazolo[5,4-e][1,2,4]triazolo[1,5-c]pyrimidin-2(3H)-one]
efflux ratio at 120 min, 2 μM (in vitro): 81 | IC50 (A2A receptor; [1]): 0.7 nM | IC50 (A2A receptor; [2]): 124 nM

Nc1nc2c(sc(=O)n2CCN2CCN(c3ccc(O[C@H]4CNC[C@@H]4F)cc3F)CC2)c2nc(-c3ccco3)nn12 [Compound 102, 5-amino-3-(2-(4-(2-fluoro-4-(((3S,4S)-4-fluoropyrrolidin-3-yl)oxy)phenyl)piperazin-1-yl)ethyl)-8-(furan-2-yl)thiazolo[5,4-e][1,2,4]triazolo[1,5-c]pyrimidin-2(3H)-one]
efflux ratio at 120 min, 2 μM (in vitro): 91 | IC50 (A2A receptor; [1]): 0.7 nM | IC50 (A2A receptor; [2]): 185 nM

Nc1nc2c(sc(=O)n2CCN2CCN(c3ccc(O[C@@H]4CNC[C@@H]4F)cc3F)CC2)c2nc(-c3ccco3)nn12 [Compound 103, 5-amino-3-(2-(4-(2-fluoro-4-(((3R,4S)-4-fluoropyrrolidin-3-yl)oxy)phenyl)piperazin-1-yl)ethyl)-8-(furan-2-yl)thiazolo[5,4-e][1,2,4]triazolo[1,5-c]pyrimidin-2(3H)-one]
efflux ratio at 120 min, 2 μM (in vitro): 20 | IC50 (A2A receptor; [1]): 1.1 nM

Nc1nc2c(sc(=O)n2CCN2CCN(c3ccc(O[C@H]4CNC[C@H]4F)cc3F)CC2)c2nc(-c3ccco3)nn12 [Compound 104, 5-amino-3-(2-(4-(2-fluoro-4-(((3S,4R)-4-fluoropyrrolidin-3-yl)oxy)phenyl)piperazin-1-yl)ethyl)-8-(furan-2-yl)thiazolo[5,4-e][1,2,4]triazolo[1,5-c]pyrimidin-2(3H)-one]
efflux ratio at 120 min, 2 μM (in vitro): 20 | IC50 (A2A receptor; [1]): 0.5 nM | IC50 (A2A receptor; [2]): 45 nM

Nc1nc2c(sc(=O)n2CCN2CCN(c3ccc(C(=O)NCC4COCCN4)cc3F)CC2)c2nc(-c3ccco3)nn12 (centres unmarked) [Compound 107, 4-(4-(2-(5-amino-8-(furan-2-yl)-2-oxothiazolo[5,4-e][1,2,4]triazolo[1,5-c]pyrimidin-3(2H)-yl)ethyl)piperazin-1-yl)-3-fluoro-N-(morpholin-3-ylmethyl)benzamide]
efflux ratio at 120 min, 2 μM (in vitro): 680 | IC50 (A2A receptor; [1]): 0.1 nM | IC50 (A2A receptor; [2]): 35 nM

Nc1nc2c(sc(=O)n2CCN2CCN(c3ccc(OC4CNC4)cc3)CC2)c2nc(-c3ccco3)nn12 [Compound 108, 5-amino-3-(2-(4-(4-(azetidin-3-yloxy)phenyl)piperazin-1-yl)ethyl)-8-(furan-2-yl)thiazolo[5,4-e][1,2,4]triazolo[1,5-c]pyrimidin-2(3H)-one]
efflux ratio at 120 min, 2 μM (in vitro): 191 | IC50 (A2A receptor; [1]): 0.7 nM | IC50 (A2A receptor; [2]): 172 nM
